From patent US5073627A (Immunex Corporation, priority 1990, dated 1991)

Tests used:
[1] = target: T1, receptors on KG-1 cells (GM-CSF/IL-3 receptors) (Homo sapiens, UniProt P26951+P32927); assay: Inhibition of 125I-IL-3 binding to KG-1 cells; conditions: for KI value on KG-1 cells relative to JM-1 cells: Table F data
T1 construct: endogenous in cells; host or cells: KG-1
T1 sequence (P26951 19-378): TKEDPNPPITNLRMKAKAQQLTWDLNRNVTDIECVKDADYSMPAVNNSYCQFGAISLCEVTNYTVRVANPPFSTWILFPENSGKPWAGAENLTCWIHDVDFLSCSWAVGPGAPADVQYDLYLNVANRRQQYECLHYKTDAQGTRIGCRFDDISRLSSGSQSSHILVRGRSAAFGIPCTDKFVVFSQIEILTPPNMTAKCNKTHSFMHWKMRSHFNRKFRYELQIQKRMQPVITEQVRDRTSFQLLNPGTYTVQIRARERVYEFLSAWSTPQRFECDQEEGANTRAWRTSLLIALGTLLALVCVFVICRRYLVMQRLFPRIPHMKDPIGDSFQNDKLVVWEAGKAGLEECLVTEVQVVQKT
T1 sequence (P32927 17-897): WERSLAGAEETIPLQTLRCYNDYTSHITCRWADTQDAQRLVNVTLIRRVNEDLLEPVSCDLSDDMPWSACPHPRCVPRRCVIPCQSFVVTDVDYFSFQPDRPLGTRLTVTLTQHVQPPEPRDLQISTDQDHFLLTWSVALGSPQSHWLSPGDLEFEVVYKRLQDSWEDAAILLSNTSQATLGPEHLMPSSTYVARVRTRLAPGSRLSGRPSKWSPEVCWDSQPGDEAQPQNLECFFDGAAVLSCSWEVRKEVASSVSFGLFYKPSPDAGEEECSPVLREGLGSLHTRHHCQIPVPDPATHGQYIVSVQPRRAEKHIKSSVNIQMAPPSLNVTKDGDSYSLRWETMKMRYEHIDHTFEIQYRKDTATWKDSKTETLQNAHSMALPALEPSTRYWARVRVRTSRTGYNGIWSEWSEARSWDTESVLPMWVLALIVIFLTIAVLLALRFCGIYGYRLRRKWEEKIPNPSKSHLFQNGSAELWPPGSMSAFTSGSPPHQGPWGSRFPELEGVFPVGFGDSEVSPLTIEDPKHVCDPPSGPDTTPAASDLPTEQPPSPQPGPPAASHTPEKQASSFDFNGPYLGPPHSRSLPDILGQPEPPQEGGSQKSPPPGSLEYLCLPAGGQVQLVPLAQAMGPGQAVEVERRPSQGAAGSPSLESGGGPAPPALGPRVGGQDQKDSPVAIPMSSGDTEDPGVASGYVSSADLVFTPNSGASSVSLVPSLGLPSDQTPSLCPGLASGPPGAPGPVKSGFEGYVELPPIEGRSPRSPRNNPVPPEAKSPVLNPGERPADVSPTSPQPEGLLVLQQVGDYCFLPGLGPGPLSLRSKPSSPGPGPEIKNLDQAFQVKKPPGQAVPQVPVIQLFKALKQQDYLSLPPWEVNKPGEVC
Experimental: (§1) Briefly, 2-10 μg of recombinant protein in 50 μl 0.2M sodium phosphate, pH 7.2, was combined with 50 μl enzymobead reagent, 2 mCi of sodium iodide in 20 μl of 0.05M sodium phosphate pH 7 and 10 μl of 2.5% β-D-glucose. After 10 min at 25° C., sodium azide (10 μl of 50 mM) and sodium metabisulfite (10 μl of 5 mg/ml) were added sequentially and incubation continued for 5 minutes at 25° C.
(§2) B. Binding Assays. Binding assays were performed using JM-1, KG-1, HL-60 and AML-193 cells.

[2] = tested on: AML-193 cells; assay: Thymidine incorporation assay, proliferation of AML-193 cells; type: cell-based, human; conditions: for Specific Activity: one unit = amount of growth factor for half-maximal thymidine incorporation, AML-193 cells
Experimental: The cells were split twice weekly and were seeded into fresh medium at a density of 300,000/ml.
These samples were then serially diluted by 3-fold through the additional 11 wells of the microtitre plate. […] Tritiated thymidine ([…]) was added to each well for an additional 6 hours of incubation and the samples were harvested with an automated sample harvester and counted by liquid scintillation. One unit of activity is defined as the amount of growth factor required to stimulate half-maximal thymidine incorporation.

[3] = target: T2, receptors on AML-193 cells (GM-CSF/IL-3 receptors) (Homo sapiens, UniProt P26951+P32927); assay: Inhibition of 125I-IL-3 binding to AML-193 cells; conditions: normalized data, JM-1 as standard
T2 construct: endogenous in cells; host or cells: AML-193
T2 sequence (P26951 19-378): T1 sequence (P26951 19-378)
T2 sequence (P32927 17-897): T1 sequence (P32927 17-897)
Experimental: as §1, §2

[4] = tested on: unfractionated human bone marrow; assay: Human bone marrow colony formation (CFU-GEMM, CFU-GM, BFU-E); type: cell-based; conditions: for Colonies (Mean ± S.D.) CFU-GM: agar
Experimental: Non-adherent, low density, T cell deplated cultures of human bone marrow were plated in methylcellulose (BFU-E, CFU-GEMM, 40,000 cells per plate) or agar (CFU-GM; 40,000 cells per culture) as described by Lu et al., Blood 61:250 (1983). Methylcellulose cultures contained 1 unit per plate erythropoietin and accounts for the background of 48±2 BFU-E in the absence of cytokine. Cultures were incubated in a 5% O2, 5% CO2, 90% N2 atmosphere for 14 days and counted with an inverted microscope.

[5] = Table D, 156 pg/ml (GM-CSF + IL-3: 156 ± 156 [sic]), 14 days
[6] = Table D, 312 pg/ml (GM-CSF + IL-3: 312 + 312), 14 days
[7] = Table D, 625 pg/ml (GM-CSF + IL-3: 625 + 625), 14 days
[8] = Table D, 625 pg/ml (GM-CSF + IL-3: 625 + 625), with erythropoietin, background 48 ± 2
[9] = Table D, 1250 pg/ml (GM-CSF + IL-3: 1250 + 1250), 14 days
[10] = Table D, 1250 pg/ml (GM-CSF + IL-3: 1250 + 1250), with erythropoietin, background 48 ± 2
[11] = Table D, 2500 pg/ml (GM-CSF + IL-3: 2500 + 2500), 14 days
[12] = Table D, 2500 pg/ml (GM-CSF + IL-3: 2500 + 2500), with erythropoietin, background 48 ± 2
[13] = Table D, 5000 pg/ml (GM-CSF + IL-3: 5000 + 5000), 14 days
[14] = Table D, 5000 pg/ml (GM-CSF + IL-3: 5000 + 5000), with erythropoietin, background 48 ± 2

Substance: huIL-3[Pro^8 Asp^15 Asp^70 ]/huGM-CSF[Leu^23 Asp^27 Glu^39 ] [IL-3/GM-CSF]
- KI value on KG-1 cells relative to JM-1 cells [1]: 10-20 fold

Substance: huGM-CSF[Leu^23 Asp^27 Glu^39 ]/Gly4 SerGly5 Ser/huIL-3[Pro^8 Asp^15 Asp^70 ] [GM-CSF/IL-3]
- Specific activity relative to IL-3 or GM-CSF alone or GM-CSF plus IL-3 combined ([2]; AML-193 thymidine incorporation): approximately 10 fold
- Specific Activity [2]: 1.81 × 10^6 units/mg
- KI value on KG-1 cells relative to JM-1 cells [1]: 10-20 fold
- Binding affinity to KG-1 cells relative to JM-1 cells ([1]; normalized data, JM-1 as standard): 41.0 fold
- Binding affinity to AML-193 cells relative to JM-1 cells [3]: 11.1 fold
- BFU-E, CFU-GM and CFU-GEMM colony formation relative to IL-3 or GM-CSF alone, or IL-3 and GM-CSF combined ([4]; FIG. 3A-3D): enhances
- Colonies (Mean ± S.D.) CFU-GEMM ([4]; Table D, 78 pg/ml, 14 days): 0 colonies
- Colonies (Mean ± S.D.) CFU-GM ([4]; Table D, 78 pg/ml, 14 days): 16 ± 2 colonies
- Colonies (Mean ± S.D.) BFU-E ([4]; Table D, 78 pg/ml, with erythropoietin, background 48 ± 2): 50 ± 3 colonies
- Colonies (Mean ± S.D.) CFU-GEMM [4, 5]: 1.0 ± 0.4 colonies
- Colonies (Mean ± S.D.) CFU-GM [4, 5]: 24 ± 3 colonies
- Colonies (Mean ± S.D.) BFU-E ([4]; Table D, 156 pg/ml (GM-CSF + IL-3: 156 ± 156 [sic]), with erythropoietin, background 48 ± 2): 49 ± 6 colonies
- Colonies (Mean ± S.D.) CFU-GEMM [4, 6]: 2.5 ± 0.7 colonies
- Colonies (Mean ± S.D.) CFU-GM [4, 6]: 35 ± 2 colonies
- Colonies (Mean ± S.D.) BFU-E ([4]; Table D, 312 pg/ml (GM-CSF + IL-3: 312 + 312), with erythropoietin, background 48 ± 2): 70 ± 4 colonies
- Colonies (Mean ± S.D.) CFU-GEMM [4, 7]: 4.3 ± 0.5 colonies
- Colonies (Mean ± S.D.) CFU-GM [4, 7]: 52 ± 6 colonies
- Colonies (Mean ± S.D.) BFU-E [4, 8]: 83 ± 5 colonies
- Colonies (Mean ± S.D.) CFU-GEMM [4, 9]: 6.8 ± 0.5 colonies
- Colonies (Mean ± S.D.) CFU-GM [4, 9]: 59 ± 2 colonies
- Colonies (Mean ± S.D.) BFU-E [4, 10]: 125 ± 8 colonies
- Colonies (Mean ± S.D.) CFU-GEMM [4, 11]: 10.3 ± 0.9 colonies
- Colonies (Mean ± S.D.) CFU-GM [4, 11]: 74 ± 1 colonies
- Colonies (Mean ± S.D.) BFU-E [4, 12]: 119 ± 5 colonies
- Colonies (Mean ± S.D.) CFU-GEMM [4, 13]: 10.3 ± 1 colonies
- Colonies (Mean ± S.D.) CFU-GM [4, 13]: 97 ± 2 colonies
- Colonies (Mean ± S.D.) BFU-E [4, 14]: 107 ± 5 colonies
- Colonies (Mean ± S.D.) CFU-GM ([4]; Table E, 78 pg/ml): 2 ± 0.3 colonies
- Colonies (Mean ± S.D.) CFU-GEMM ([4]; Table E, 78 pg/ml, media control 2 ± 0): 2.0 ± 0 colonies
- Colonies (Mean ± S.D.) BFU-E ([4]; Table E, 78 pg/ml, media control 44 ± 4): 44 ± 1 colonies
- Colonies (Mean ± S.D.) CFU-GM ([4]; Table E, 156 pg/ml (GM-CSF + IL-3: 156 + 156)): 5 ± 1 colonies
- Colonies (Mean ± S.D.) CFU-GEMM ([4]; Table E, 156 pg/ml, media control 2 ± 0): 2.0 ± 1 colonies
- Colonies (Mean ± S.D.) BFU-E ([4]; Table E, 156 pg/ml, media control 44 ± 4): 47 ± 3 colonies
- Colonies (Mean ± S.D.) CFU-GM ([4]; Table E, 312 pg/ml (GM-CSF + IL-3: 312 + 312)): 8 ± 1 colonies
- Colonies (Mean ± S.D.) CFU-GEMM ([4]; Table E, 312 pg/ml, media control 2 ± 0): 5.5 ± 0.5 colonies
- Colonies (Mean ± S.D.) BFU-E ([4]; Table E, 312 pg/ml, media control 44 ± 4): 71 ± 1 colonies
- Colonies (Mean ± S.D.) CFU-GM ([4]; Table E, 625 pg/ml (GM-CSF + IL-3: 625 + 625)): 15 ± 2 colonies
- Colonies (Mean ± S.D.) CFU-GEMM ([4]; Table E, 625 pg/ml (GM-CSF + IL-3: 625 + 625), media control 2 ± 0): 6.0 ± 1 colonies
- Colonies (Mean ± S.D.) BFU-E ([4]; Table E, 625 pg/ml (GM-CSF + IL-3: 625 + 625), media control 44 ± 4): 97 ± 2 colonies
- Colonies (Mean ± S.D.) CFU-GM ([4]; Table E, 1250 pg/ml (GM-CSF + IL-3: 1250 + 1250)): 23 ± 2 colonies
- Colonies (Mean ± S.D.) CFU-GEMM ([4]; Table E, 1250 pg/ml (GM-CSF + IL-3: 1250 + 1250), media control 2 ± 0): 9.0 ± 0 colonies
- Colonies (Mean ± S.D.) BFU-E ([4]; Table E, 1250 pg/ml (GM-CSF + IL-3: 1250 + 1250), media control 44 ± 4): 127 ± 7 colonies
- Colonies (Mean ± S.D.) CFU-GM ([4]; Table E, 2500 pg/ml (GM-CSF + IL-3: 2500 + 2500)): 45 ± 5 colonies
- Colonies (Mean ± S.D.) CFU-GEMM ([4]; Table E, 2500 pg/ml (GM-CSF + IL-3: 2500 + 2500), media control 2 ± 0): 10.0 ± 1 colonies
- Colonies (Mean ± S.D.) BFU-E ([4]; Table E, 2500 pg/ml (GM-CSF + IL-3: 2500 + 2500), media control 44 ± 4): 125 ± 10 colonies
- Colonies (Mean ± S.D.) CFU-GM ([4]; Table E, 5000 pg/ml (GM-CSF + IL-3: 5000 + 5000)): 43 ± 5 colonies
- Potency in enhancing proliferation of unfractionated human bone marrow cells ([4]; summary of Tables D and E): equivalent in potentcy to a mixture of GM-CSF and IL-3

Substance: GM-CSF: recombinant human granulocyte-macrophage colony-stimulating factor expressed in yeast, comparator
- Specific Activity [2]: 9.74 × 10^4 units/mg
- Colonies (Mean ± S.D.) CFU-GEMM [4, 6]: 0 colonies
- Colonies (Mean ± S.D.) CFU-GM [4, 6]: 16 ± 1 colonies
- Colonies (Mean ± S.D.) CFU-GEMM [4, 7]: 0.3 ± 0.3 colonies
- Colonies (Mean ± S.D.) CFU-GM [4, 7]: 21 ± 2 colonies
- Colonies (Mean ± S.D.) BFU-E [4, 8]: 46 ± 3 colonies
- Colonies (Mean ± S.D.) CFU-GEMM [4, 9]: 1.5 ± 0.3 colonies
- Colonies (Mean ± S.D.) CFU-GM [4, 9]: 33 ± 2 colonies
- Colonies (Mean ± S.D.) BFU-E [4, 10]: 47 ± 4 colonies
- Colonies (Mean ± S.D.) CFU-GEMM [4, 11]: 3.5 ± 0.7 colonies
- Colonies (Mean ± S.D.) CFU-GM [4, 11]: 42 ± 2 colonies
- Colonies (Mean ± S.D.) BFU-E [4, 12]: 61 ± 1 colonies
- Colonies (Mean ± S.D.) CFU-GEMM [4, 13]: 6.8 ± 0.6 colonies
- Colonies (Mean ± S.D.) CFU-GM [4, 13]: 42 ± 4 colonies
- Colonies (Mean ± S.D.) BFU-E [4, 14]: 63 ± 3 colonies
